System: patients with advanced solid tumors
Test: phase I dose escalation: safety, DLT, MTD, RP2D (CTCAE v. 5)
Assay type: in vivo
Text: Subsequent dosing cohorts were enrolled using a standard 3 + 3 design.
If any patient in any cohort of three patients developed a DLT during cycle 1, an additional three patients were recruited to expand the cohort to up to six evaluable patients. If two or more patients in any expanded cohort developed a DLT, this dose was considered non-tolerated, and dose escalation was discontinued. The MTD was defined as the highest dose level for which no more than one of six patients experienced a DLT.
Patients were continuously evaluated for adverse events throughout the study using the Common Terminology Criteria of Adverse Events (CTCAE v. 5). The patients underwent a clinical history and physical examination, an ECOG PS, a complete blood count (CBCs), chemistry, coagulation studies, urinalysis, a serum pregnancy test (as applicable), a triplicate ECG, an ophthalmology examination, and baseline tumor assessment at screening. During cycle 1, weekly history and physical examination, CBC, chemistry, coagulation parameters, urinalysis, and triplicate ECGs were performed; in subsequent cycles, weekly labs were limited to a CBC. Repeat ophthalmology examinations were performed at cycle 3, day 1, and at the end of treatment. Repeat tumor assessment was performed every 2 cycles (6 weeks) in accordance with RECIST 1.1.

[1] = All 4:3 Patients (n = 20), All Grades
[2] = All Continuous Patients (N=8), All grades
[3] = All Continuous Patients (N=8), G1
[4] = All Continuous Patients (N=8), G2
[5] = All Continuous Patients (N=8), G3

CC(C)[C@H](N)C(=O)SCC/C=C/[C@@H]1CC(=O)NCc2nc(cs2)C(=O)NC(C)(C)C(=O)N[C@@H](C(C)C)C(=O)O1 [OKI-179, Bocodepsin]
TEAE: Platelet count decreased (5:2, 300 mg (N=6), G2): 0 N (%)
TEAE: Pneumonitis (5:2, 300 mg (N=6), G2): 1 (17) N (%)
TEAE: Pneumothorax (5:2, 300 mg (N=6), G2): 0 N (%)
TEAE: Vomiting (5:2, 300 mg (N=6), G2): 1 (17) N (%)
TEAE: Abdominal pain (5:2, 300 mg (N=6), G3): 0 N (%)
TEAE: Anemia (5:2, 300 mg (N=6), G3): 1 (17) N (%)
TEAE: Aspartate aminotransferase increased (5:2, 300 mg (N=6), G3): 0 N (%)
TEAE: Back pain (5:2, 300 mg (N=6), G3): 1 (17) N (%)
TEAE: Bile duct stenosis (5:2, 300 mg (N=6), G3): 1 (17) N (%)
TEAE: Blood alkaline phosphatase increased (5:2, 300 mg (N=6), G3): 0 N (%)
TEAE: Decreased appetite (5:2, 300 mg (N=6), G3): 1 (17) N (%)
TEAE: Dehydration (5:2, 300 mg (N=6), G3): 0 N (%)
TEAE: Dysphagia (5:2, 300 mg (N=6), G3): 0 N (%)
TEAE: ECG QT prolonged (5:2, 300 mg (N=6), G3): 0 N (%)
TEAE: Enterococcal bacteremia (5:2, 300 mg (N=6), G3): 1 (17) N (%)
TEAE: Esophagitis (5:2, 300 mg (N=6), G3): 0 N (%)
TEAE: Esophagoscopy (5:2, 300 mg (N=6), G3): 0 N (%)
TEAE: Eye pain (5:2, 300 mg (N=6), G3): 0 N (%)
TEAE: Fatigue (5:2, 300 mg (N=6), G3): 0 N (%)
TEAE: Gastritis (5:2, 300 mg (N=6), G3): 0 N (%)
TEAE: Hypomagnesaemia (5:2, 300 mg (N=6), G3): 0 N (%)
TEAE: Myalgia (5:2, 300 mg (N=6), G3): 0 N (%)
TEAE: Nausea (5:2, 300 mg (N=6), G3): 1 (17) N (%)
TEAE: Neutrophil count decreased (5:2, 300 mg (N=6), G3): 0 N (%)
TEAE: Oropharyngeal pain (5:2, 300 mg (N=6), G3): 0 N (%)
TEAE: Pain in extremity (5:2, 300 mg (N=6), G3): 0 N (%)
TEAE: Paresthesia (5:2, 300 mg (N=6), G3): 0 N (%)
TEAE: Platelet count decreased (5:2, 300 mg (N=6), G3): 0 N (%)
TEAE: Pneumonitis (5:2, 300 mg (N=6), G3): 0 N (%)
TEAE: Pneumothorax (5:2, 300 mg (N=6), G3): 1 (17) N (%)
TEAE: Vomiting (5:2, 300 mg (N=6), G3): 0 N (%)
TEAE: Fatigue (5:2 cohort, 300 mg): 67%
TEAE: Nausea (5:2 cohort, 300 mg): 83%
TEAE: Vomiting (5:2 cohort, 300 mg): 50%
TEAE: decreased platelet count (5:2 cohort, 300 mg): 67%
TEAE: Anemia [1]: 8 (40) n (%)
TEAE: Back pain [1]: 4 (20) n (%)
TEAE: Cough [1]: 4 (20) n (%)
TEAE: Decreased appetite [1]: 7 (35) n (%)
TEAE: Diarrhea [1]: 5 (25) n (%)
TEAE: Dyspnea [1]: 3 (15) n (%)
TEAE: ECG QT prolonged [1]: 4 (20) n (%)
TEAE: Fatigue [1]: 8 (40) n (%)
TEAE: Headache [1]: 3 (15) n (%)
TEAE: Hypokalaemia [1]: 3 (15) n (%)
TEAE: Muscular weakness [1]: 4 (20) n (%)
TEAE: Nasal congestion [1]: 3 (15) n (%)
TEAE: Platelet count decreased [1]: 6 (30) n (%)
TEAE: Proteinuria [1]: 3 (15) n (%)
TEAE: Pyrexia [1]: 4 (20) n (%)
TEAE: Vomiting [1]: 6 (30) n (%)
TEAE: Weight decreased [1]: 3 (15) n (%)
TEAE: Anemia (All 4:3 Patients (n = 20), G1): 1 (5) n (%)
TEAE: Back pain (All 4:3 Patients (n = 20), G1): 3 (15) n (%)
TEAE: Cough (All 4:3 Patients (n = 20), G1): 3 (15) n (%)
TEAE: Decreased appetite (All 4:3 Patients (n = 20), G1): 4 (20) n (%)
TEAE: Diarrhea (All 4:3 Patients (n = 20), G1): 5 (25) n (%)
TEAE: Dyspnea (All 4:3 Patients (n = 20), G1): 3 (15) n (%)
TEAE: ECG QT prolonged (All 4:3 Patients (n = 20), G1): 1 (5) n (%)
TEAE: Fatigue (All 4:3 Patients (n = 20), G1): 3 (15) n (%)
TEAE: Headache (All 4:3 Patients (n = 20), G1): 3 (15) n (%)
TEAE: Hypokalaemia (All 4:3 Patients (n = 20), G1): 1 (5) n (%)
TEAE: Muscular weakness (All 4:3 Patients (n = 20), G1): 1 (5) n (%)
TEAE: Nasal congestion (All 4:3 Patients (n = 20), G1): 3 (15) n (%)
TEAE: Nausea (All 4:3 Patients (n = 20), G1): 9 (45) n (%)
TEAE: Platelet count decreased (All 4:3 Patients (n = 20), G1): 4 (20) n (%)
TEAE: Proteinuria (All 4:3 Patients (n = 20), G1): 0 n (%)
TEAE: Pyrexia (All 4:3 Patients (n = 20), G1): 3 (15) n (%)
TEAE: Vomiting (All 4:3 Patients (n = 20), G1): 5 (25) n (%)
TEAE: Weight decreased (All 4:3 Patients (n = 20), G1): 2 (10) n (%)
TEAE: Anemia (All 4:3 Patients (n = 20), G2): 2 (10) n (%)
TEAE: Back pain (All 4:3 Patients (n = 20), G2): 0 n (%)
TEAE: Cough (All 4:3 Patients (n = 20), G2): 1 (5) n (%)
TEAE: Decreased appetite (All 4:3 Patients (n = 20), G2): 3 (15) n (%)
TEAE: Diarrhea (All 4:3 Patients (n = 20), G2): 0 n (%)
TEAE: Dyspnea (All 4:3 Patients (n = 20), G2): 0 n (%)
TEAE: ECG QT prolonged (All 4:3 Patients (n = 20), G2): 0 n (%)
TEAE: Fatigue (All 4:3 Patients (n = 20), G2): 2 (10) n (%)
TEAE: Headache (All 4:3 Patients (n = 20), G2): 0 n (%)
TEAE: Hypokalaemia (All 4:3 Patients (n = 20), G2): 2 (10) n (%)
TEAE: Muscular weakness (All 4:3 Patients (n = 20), G2): 2 (10) n (%)
TEAE: Nasal congestion (All 4:3 Patients (n = 20), G2): 0 n (%)
TEAE: Nausea (All 4:3 Patients (n = 20), G2): 4 (20) n (%)
TEAE: Platelet count decreased (All 4:3 Patients (n = 20), G2): 2 (10) n (%)
TEAE: Proteinuria (All 4:3 Patients (n = 20), G2): 3 (15) n (%)
TEAE: Pyrexia (All 4:3 Patients (n = 20), G2): 0 n (%)
TEAE: Vomiting (All 4:3 Patients (n = 20), G2): 1 (5) n (%)
TEAE: Weight decreased (All 4:3 Patients (n = 20), G2): 1 (5) n (%)
TEAE: Anemia (All 4:3 Patients (n = 20), G3): 5 (25) n (%)
TEAE: Back pain (All 4:3 Patients (n = 20), G3): 1 (5) n (%)
TEAE: Cough (All 4:3 Patients (n = 20), G3): 0 n (%)
TEAE: Decreased appetite (All 4:3 Patients (n = 20), G3): 0 n (%)
TEAE: Diarrhea (All 4:3 Patients (n = 20), G3): 0 n (%)
TEAE: Dyspnea (All 4:3 Patients (n = 20), G3): 0 n (%)
TEAE: ECG QT prolonged (All 4:3 Patients (n = 20), G3): 3 (15) n (%)
TEAE: Fatigue (All 4:3 Patients (n = 20), G3): 3 (15) n (%)
TEAE: Headache (All 4:3 Patients (n = 20), G3): 0 n (%)
TEAE: Hypokalaemia (All 4:3 Patients (n = 20), G3): 0 n (%)
TEAE: Muscular weakness (All 4:3 Patients (n = 20), G3): 1 (5) n (%)
TEAE: Nasal congestion (All 4:3 Patients (n = 20), G3): 0 n (%)
TEAE: Nausea (All 4:3 Patients (n = 20), G3): 0 n (%)
TEAE: Platelet count decreased (All 4:3 Patients (n = 20), G3): 0 n (%)
TEAE: Proteinuria (All 4:3 Patients (n = 20), G3): 0 n (%)
TEAE: Pyrexia (All 4:3 Patients (n = 20), G3): 1 (5) n (%)
TEAE: Vomiting (All 4:3 Patients (n = 20), G3): 0 n (%)
TEAE: Weight decreased (All 4:3 Patients (n = 20), G3): 0 n (%)
TEAE: Abdominal pain [2]: 2 (25) N (%)
TEAE: Anemia [2]: 2 (25) N (%)
TEAE: Constipation [2]: 6 (75) N (%)
TEAE: Decreased appetite [2]: 2 (25) N (%)
TEAE: Diarrhea [2]: 3 (38) N (%)
TEAE: Dyspepsia [2]: 2 (25) N (%)
TEAE: ECG QT prolonged [2]: 2 (25) N (%)
TEAE: Fatigue [2]: 4 (50) N (%)
TEAE: Headache [2]: 3 (38) N (%)
TEAE: Nausea [2]: 6 (75) N (%)
TEAE: Pain [2]: 2 (25) N (%)
TEAE: Platelet count decreased [2]: 4 (50) N (%)
TEAE: Abdominal pain [3]: 1 (13) N (%)
TEAE: Anemia [3]: 0 N (%)
TEAE: Constipation [3]: 3 (38) N (%)
TEAE: Decreased appetite [3]: 1 (13) N (%)
TEAE: Diarrhea [3]: 3 (38) N (%)
TEAE: Dyspepsia [3]: 1 (13) N (%)
TEAE: ECG QT prolonged [3]: 1 (13) N (%)
TEAE: Fatigue [3]: 1 (13) N (%)
TEAE: Headache [3]: 3 (38) N (%)
TEAE: Nausea [3]: 4 (50) N (%)
TEAE: Pain [3]: 1 (13) N (%)
TEAE: Platelet count decreased [3]: 1 (13) N (%)
TEAE: Abdominal pain [4]: 1 (13) N (%)
TEAE: Anemia [4]: 2 (25) N (%)
TEAE: Constipation [4]: 3 (38) N (%)
TEAE: Decreased appetite [4]: 0 N (%)
TEAE: Diarrhea [4]: 0 N (%)
TEAE: Dyspepsia [4]: 1 (13) N (%)
TEAE: ECG QT prolonged [4]: 1 (13) N (%)
TEAE: Fatigue [4]: 2 (25) N (%)
TEAE: Headache [4]: 0 N (%)
TEAE: Nausea [4]: 2 (25) N (%)
TEAE: Pain [4]: 1 (13) N (%)
TEAE: Platelet count decreased [4]: 1 (13) N (%)
TEAE: Abdominal pain [5]: 0 N (%)
TEAE: Anemia [5]: 0 N (%)
TEAE: Constipation [5]: 0 N (%)
TEAE: Decreased appetite [5]: 1 (13) N (%)
TEAE: Diarrhea [5]: 0 N (%)
TEAE: Dyspepsia [5]: 0 N (%)
TEAE: ECG QT prolonged [5]: 0 N (%)
TEAE: Fatigue [5]: 1 (13) N (%)
